Data published in ChEMBL document CHEMBL1136551, “Characterization of the mechanism of anticonvulsant activity for a selected set of putative AMPA receptor antagonists” (Bioorg Med Chem Lett, 2003).
pIC50: −log10 of the molar value.

Key:
[1] = target: Glutamate receptor ionotropic, NMDA 1 (Rattus norvegicus) (UniProt P35439); assay: Percentage inhibition of [3H]glycine to NMDA receptors of rat cortical membranes at 32 uM; assay type: cell membranes; settings: Membrane
[2] = species: Rattus norvegicus; assay: Inhibition of KA-induced increase in [Ca2+]i in rat cerebellar granule neurons; assay type: functional
[3] = target: Glutamate receptor ionotropic, AMPA (Rattus norvegicus) (UniProt P19491+P19492+P19493+P19490); assay: Percent inhibition of [3H]CP-526427 binding to Ionotropic glutamate receptor AMPA in rat forebrain membranes at 32 uM; assay type: cell membranes; settings: Membrane
[4] = target: Glutamate receptor ionotropic, NMDA 1 (Rattus norvegicus, UniProt P35439); assay: Inhibition of specific binding of [3H]glycine to NMDA receptors, in rat cortical membranes at 32 uM conc.; assay type: cell membranes, Membrane
[5] = target: T1, Glutamate receptor ionotropic, AMPA (Rattus norvegicus, UniProt P19490+P19491+P19492+P19493); assay: Ability to displace [3H]CP-526427 from the Ionotropic glutamate receptor AMPA binding site in rat forebrain membranes; assay type: cell membranes, Brain, Membrane
[6] = species: Mus musculus; assay: Anticonvulsant activity against audiogenic seizures in DBA/2 mice measured in clonic phase; assay type: functional
[7] = target: T1, Glutamate receptor ionotropic, AMPA; assay: Ability to displace [3H]CP-526427 from the AMPA receptor binding site in rat forebrain membranes; assay type: cell membranes, Membrane
[8] = species: Mus musculus; assay: Anticonvulsant activity against audiogenic seizures in DBA/2 mice measured in tonic phase; assay type: functional

Structure (SMILES) | inhibition [1] [%] | pIC50 [2] | inhibition [3] [%] | pIC50 [4] | pIC50 [5] | ED50 [6] [µmol/kg] | pIC50 [7] | ED50 [8] [µmol/kg]
CCCCNC(=O)n1nc(-c2ccc(N)cc2)c2cc3c(cc2c1=O)OCO3 | 13 | < 4.00 | 0 |  |  |  |  | 
O=C(O)c1cc(O)c2c(Cl)cc(Cl)cc2n1 |  |  |  | 7.05 |  |  |  | 
CNC(=O)N1N=C(c2ccc(N)cc2)c2cc3c(cc2CC1=O)OCO3 | 0 | 4.96 | 59 |  | 4.92 |  |  | 
CNC(=O)N/N=C(\c1ccc(N)cc1)c1cc2c(cc1CC(=O)OC)OCO2 | 2 |  | 16 |  |  | 7.87 |  | 
Nc1ccc(-c2nnc(O)c3cc4c(cc23)OCO4)cc1 | 12 | < 4.00 | 13 |  |  |  |  | 
Nc1ccc(C2=NNC(=O)Cc3cc4c(cc32)OCO4)cc1 | 0 | 4.89 | 74 |  | 4.49 |  |  | 
CC1=NN=C(c2ccc(N)cc2)c2cc3c(cc2C1)OCO3 [GYKI-52466] | 18 | 4.66 |  |  |  |  | 4.90 | 
Nc1ccc(C2NNC(=O)Cc3cc4c(cc32)OCO4)cc1 (centres undefined) | 9 | < 4.00 | 10 |  |  |  |  | 6.47
Nc1cccc(C2=NNC(=O)Cc3cc4c(cc32)OCO4)c1 | 0 | < 3.49 | 31 |  | < 3.49 |  |  | 
NS(=O)(=O)c1cccc2c1c([N+](=O)[O-])cc1nc(O)c(O)nc12 | 3 |  |  |  |  |  |  | 
CNC(=O)N1NC(c2ccc(N)cc2)c2cc3c(cc2CC1=O)OCO3 (centres undefined) | 12 | < 4.00 | 0 |  |  | 14.7 |  | 12.4
CNC(=O)NC(=O)Cc1cc2c(cc1C(=O)c1ccc(N)cc1)OCO2 | 11 |  | 3 |  |  |  |  | 
CNC(=O)NC(=O)Cc1cc2c(cc1Cc1ccc(N)cc1)OCO2 | 0 |  | 0 |  |  |  |  | 
CCCCNC(=O)N1NC(c2ccc(N)cc2)c2cc3c(cc2CC1=O)OCO3 (centres undefined) | 13 | < 4.00 | 0 |  |  | 39.2 |  | 32.7
